These results are taken from ChEMBL document CHEMBL1201862, “PubChem BioAssay data set” (2004).

Some test systems named below: HOP-92; UACC-62; MDA-MB-231; HCT-116; A549; SK-MEL-5; DU-145; Hs-578T; OVCAR-3; K562; SF-295; NCI-H522; OVCAR-8; BT-549; HT-29; T47D; HCT-15; A498; SF-268; HCC 2998.
Common to all, as to assay: DTP human tumour cell line panel, 48 h

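Grown in 96-well plates, cells were treated for 48 hours with each compound at five concentrations. Insufficient inhibition: endpoint recorded as highest concentration tested. GI50: concentration for 50% inhibition of growth.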 Calls of active or inactive are those of the source. No stated cut-off is given here; in the data, active = GI50 up to about 1.1 µM and inactive = higher. Numbered stars: 1 amine (or outer) side, 2 acyl side, 3 side chain; on linkers, the order of the positions; unused ones are H or OH. Square brackets hold non-standard residues; d marks the D form. Peptide text beside a SMILES is read from it. * marks the point of attachment. X30 = CC(=O)N(C)SCC(N[*:1])C(=O)[*:2]; Cbz = O=C(OCc1ccccc1)*; Bn = c1ccc(C*)cc1

Broadly, the GI50 is the concentration at which growth is held to half of that of the control. For the compound `FC1C2=C(SC1(F)F)C1CCC2C1` (configuration not stated), the GI50 in the test with HOP-92, in the test on UACC-62, in the test on MDA-MB-231, in the test on HCT-116, in the test on A549 and in the test with SK-MEL-5 was > 100 µM (inactive) in each case. The GI50 in the test on DU-145, in the test with Hs-578T, with OVCAR-3, in the test with K562, in the test with SF-295 and in the test with NCI-H522 was > 100 µM (inactive) throughout. Besides, the GI50 was > 100 µM (inactive) in the test with OVCAR-8; > 100 µM (inactive) with BT-549; > 100 µM (inactive) with HT-29; > 100 µM (inactive) in the test on T47D; greater than 100 µM in the test on HCT-15.
For `O=C1OC(c2ccc(O)c(Cl)c2)(c2ccc(O)c(Cl)c2)c2ccc(Br)c3cccc1c23.O=C1OC(c2ccc(O)c(Cl)c2)(c2ccc(O)c(Cl)c2)c2cccc3c(Br)ccc1c23`, the GI50 was 9.53 µM (inactive) in the test with HOP-92; 12.4 µM (inactive) in the test on UACC-62; 14.2 µM (inactive) with MDA-MB-231; 19.3 µM (inactive) in the test on HCT-116; 18.8 µM (inactive) with A549; 17.5 µM (inactive) with SK-MEL-5. The GI50 in the test on DU-145 was 23.7 µM (inactive); in the test on Hs-578T it was 29.3 µM (inactive); in the test on OVCAR-3, 5.82 µM (inactive); in the test with A498 it was 18.7 µM (inactive); with K562, 22.7 µM (inactive); in the test with SF-295, 18.3 µM (inactive). In addition, the GI50 with SF-268 was 14.2 µM (inactive); in the test on OVCAR-8, 27.8 µM (inactive); in the test with BT-549, 21.5 µM (inactive); in the test on HT-29 it was 11.5 µM (inactive); in the test with T47D, 2.9 µM (inactive); in the test on HCT-15, 24.8 µM. For the same compound, in the test with HCC 2998, the GI50 is 19.3 µM (inactive).
For the compound `CCOP(=O)(O)CC1OC(CO)C(O)C1O` (configuration not stated), the GI50 with HOP-92, in the test on UACC-62, with MDA-MB-231, with HCT-116, with A549 and with SK-MEL-5 was > 100 µM (inactive) throughout. Moreover, the GI50 in the test with DU-145, in the test with Hs-578T, with OVCAR-3, in the test on K562, in the test on SF-295 and in the test with SF-268 was > 100 µM (inactive) in each case. The GI50 in the test on NCI-H522 is > 100 µM (inactive); in the test on OVCAR-8 it was > 100 µM (inactive); in the test with BT-549 it was > 100 µM (inactive); in the test with HT-29 it was > 100 µM (inactive); with T47D, > 100 µM (inactive); in the test with HCT-15 it was greater than 100 µM.
`CC(=O)N(C)SCC(NC(=O)C(Cc1ccccc1)NC(=O)OCc1ccccc1)C(=O)NC(Cc1ccccc1)C(=O)NC(Cc1c[nH]c2ccccc12)C(=O)NC(CCCCNC(=O)OCc1ccccc1)C(=O)NC(C(=O)NC(CSN(C)C(C)=O)C(=O)NC(C(N)=O)C(C)OCc1ccccc1)C(C)OCc1ccccc1` (configuration not stated) (Cbz-F[X30]FWK(Cbz)T(Bn)[X30]T(Bn)-NH2; configuration not given here): the GI50 in the test on HOP-92 was 72.1 µM (inactive); in the test on UACC-62, > 100 µM (inactive); with MDA-MB-231, 35.3 µM (inactive); in the test on HCT-116, > 100 µM (inactive); in the test on A549, > 100 µM (inactive); in the test with SK-MEL-5, > 100 µM (inactive). In addition, the GI50 in the test on DU-145, with Hs-578T, in the test on OVCAR-3, in the test on K562, in the test with SF-295 and with SF-268 was > 100 µM (inactive) in each case. The GI50 was > 100 µM (inactive) with OVCAR-8; > 100 µM (inactive) in the test on BT-549; > 100 µM (inactive) with HT-29; > 100 µM (inactive) in the test with T47D; greater than 100 µM in the test with HCT-15; > 100 µM (inactive) in the test on HCC 2998.
